What follows are compounds tested on BV-2 (assay: Potency index, ratio of curcumin IC50 to compound IC50 for inhibition of LPS-induced nitric oxide production in mouse BV2 cells).
Format: functional

Row | Compound | Ratio IC50
1 | CC(C)=CCC/C(C)=C\[C@H]1C=C(CO)[C@@H]2CC[C@]3([C@H](CCCO)/C(=C(/C)C=O)CC[C@]3(C)O)[C@@H]2O1 | 3

Each compound was assayed on BV-2 (assay: Inhibition of LPS-induced nitric oxide production in mouse BV2 cells pretreated for 24 hrs followed by LPS-stimulation after 24 hrs by Griess assay).
Format: functional, cell-based

Row | Compound | IC50
2 | COc1cc(/C=C/C(=O)CC(=O)/C=C/c2ccc(O)c(OC)c2)ccc1O [CURCUMIN] | 2.36 µM
3 | CC(C)=CCC/C(C)=C\[C@H]1C=C(CO)[C@@H]2CC[C@]3([C@H](CCCO)/C(=C(/C)C=O)CC[C@]3(C)O)[C@@H]2O1 | 0.54 µM
4 | C=C(C)[C@H]1CC[C@@](C)(O)[C@@H]1/C=C/C(C)=C/[C@H]1C[C@@]23[C@H](OCCC[C@@H]2/C(=C(\C)C=O)CC[C@]3(C)O)O1 | > 10 µM
5 | C=C(C)[C@H]1CC[C@@](C)(O)[C@@H]1/C=C/C(C)=C/[C@H]1C[C@@]23[C@H](OCCC[C@@H]2/C(=C(/C)C=O)CC[C@]3(C)O)O1 | > 10 µM
6 | C=C(C)[C@@H]1CC[C@](C)(O)[C@H]1/C=C/C(C)=C/[C@H]1C[C@@]23[C@H](OCCC[C@@H]2/C(=C(/C)C=O)CC[C@]3(C)O)O1 | > 10 µM
7 | C/C(C=O)=C1\CC[C@](C)(O)[C@]23C[C@H](/C=C(C)/C=C/[C@@H]4[C@@H](C(C)(C)O)CC[C@@]4(C)O)O[C@H]2OCCC[C@H]13 | > 10 µM
8 | CC(/C=C/[C@H]1[C@H](C(C)(C)O)CC[C@]1(C)O)=C\[C@H]1C[C@@]23[C@H](OCCC[C@@H]2/C(=C(\C)C=O)CC[C@]3(C)O)O1 | > 10 µM
9 | CC(/C=C/[C@@H]1[C@@H](C(C)(C)O)CC[C@@]1(C)O)=C\[C@H]1C[C@@]23[C@H](OCCC[C@@H]2/C(=C(\C)C=O)CC[C@]3(C)O)O1 | > 10 µM

Reference: ChEMBL document CHEMBL4004795, “Polycycloiridals with a Cyclopentane Ring from Iris tectorum” (J Nat Prod, 2017)
